From US12534425B2, “Phenalkylamines and methods of treating mood disorders” (GILGAMESH PHARMACEUTICALS, INC., priority 2020, dated 2026)
pEC50: −log10 of the molar value.

Legend:
C57BL/6 mice = test: Head twitch response (HTR) in mice; type: in vivo; conditions: for Average HTR (SEM): counted for 20 min; for ED50: Mus musculus, sc, Gaussian dose-response fit, read-out: HTR ED50 (95% CI); for maximal HTR effect: s.c., maximal effect over doses
Procedure: Animals. Adult male C57BL/6 mice, aged 8 weeks (body weight 20-25 g) were used in these experiments. Animals were housed under controlled temperatures and 12-hour light/dark cycles (lights on between 07:00-19:00 h), with ad libitum food and water. All efforts were made to minimize suffering.
Drugs and Drug Administration. Compound 1 was synthesized as described above. […] All compounds were used as the HCl salts, dissolved in a vehicle consisting of normal saline, and administered subcutaneously (s.c.) in a volume of 10 mL/kg. […] Group size was N=6 animals/group.
Procedure. Mice were administered one dose of a test drug (or vehicle) s.c. and immediately placed into a small open field for behavioral observation.
Statistical Analysis. The data points shown in Table 4 are the mean±standard error of the mean (SEM). Dose-response curves were fit and ED50s calculated using the Gaussian 2020 function in GraphPad Prism 9.

[1] = Metabolic stability in cynomolgus monkey liver microsomes (CLM); conditions: male, pooled liver microsomes, pH 7.4
5-HT2A receptor [2] = target: T1, 5-HT2A receptor (Homo sapiens (Human), UniProt P28223); test: 5-HT2A receptor radioligand binding ([3H]ketanserin); conditions: for Ki: 1 nM [3H]ketanserin, HEK293 stable cell line
Procedure: Methods. Affinity of the test compounds for the 5-HT2A receptor was determined in radioligand binding experiments with [^3H]ketanserin by WuXi AppTec (Hong Kong) Limited, using methods adapted from the literature and under conditions described in Table 2.

5-HT1A receptor = 5-HT1A receptor (Homo sapiens (Human), UniProt P08908); test: FLIPR Ca2+ flux agonist assay at 5-HT1A; type: cell-based
Procedure: (§1) The functional activity of Compound 1 at several serotonin (5-HT) receptor subtypes (5-HT2A, 5-HT2B, and 5-HT1A) was determined in Ca^2+ flux assays, with the results summarized in Table 3.
(§2) Functional Assays at 5-HT2A, 5-HT2B, and 5-HT1A Receptors. Agonist activity at 5-HT2A, 5-HT2B, and 5-HT1A receptors was determined using a FLIPR Ca^2+ flux assay at WuXi AppTec (Hong Kong) Limited according to their standard protocols. Briefly, stably transfected cells expressing the receptor of interest (HEK293 for 5-HT2A and 5-HT2B; CHO cells for 5-HT1A) were grown and plated in a 384 well plate and incubated at 37° C. and 5% CO2 overnight. A solution of 250 mM probenecid in 1 mL FLIPR assay buffer was prepared fresh. This was combined with a fluorescent dye (Fluo-4 Direct™) to make a final assay concentration of 2.5 mM. Compounds were diluted 1:3.16 for 10 points and 750 nL was added to a 384 well compound plate using ECHO along with 30 μL assay buffer. The fluorescent dye was then added to the assay plate along with assay buffer to a final volume of 40 μL. The cell plate was incubated for 50 min at 37° C. and 5% CO2 and placed into the FLIPR Tetra along with the compound plate. 10 μL of references and compounds were then transferred from the compound plate into the cell plate and the fluorescent signal was read.

5-HT2A receptor [3] = target: T1, 5-HT2A receptor; test: FLIPR Ca2+ flux agonist assay at 5-HT2A; type: cell-based
Procedure: as §1, §2

5-HT2B receptor = 5-HT2B receptor (Homo sapiens (Human), UniProt P41595); test: FLIPR Ca2+ flux agonist assay at 5-HT2B; type: cell-based
Sequence of 5-HT2B receptor (P41595 whole entry): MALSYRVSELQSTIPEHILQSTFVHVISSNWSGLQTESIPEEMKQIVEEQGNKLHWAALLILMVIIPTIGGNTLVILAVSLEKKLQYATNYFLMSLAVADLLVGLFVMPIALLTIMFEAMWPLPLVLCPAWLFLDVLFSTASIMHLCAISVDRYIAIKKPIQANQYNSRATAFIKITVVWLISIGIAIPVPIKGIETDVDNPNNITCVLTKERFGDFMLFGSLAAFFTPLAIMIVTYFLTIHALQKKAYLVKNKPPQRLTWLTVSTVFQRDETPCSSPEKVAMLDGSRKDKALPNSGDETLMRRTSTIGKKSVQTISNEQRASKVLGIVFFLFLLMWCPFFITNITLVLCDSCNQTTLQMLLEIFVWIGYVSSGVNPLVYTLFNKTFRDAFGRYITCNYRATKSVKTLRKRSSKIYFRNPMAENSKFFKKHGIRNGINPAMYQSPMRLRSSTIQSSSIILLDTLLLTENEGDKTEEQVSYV
Procedure: as §1, §2

[4] = Ca2+ flux, HEK293 cells, max dose

Row | SMILES | Average HTR (SEM) (C57BL/6 mice; 0.1 mg/kg s.c.) | Average HTR (SEM) (C57BL/6 mice; 0.316 mg/kg s.c.) | Average HTR (SEM) (C57BL/6 mice; 1 mg/kg s.c.) | Average HTR (SEM) (C57BL/6 mice; 3.16 mg/kg s.c.) | Average HTR (SEM) (C57BL/6 mice; 10 mg/kg s.c.) | ED50 (C57BL/6 mice) | maximal HTR effect (C57BL/6 mice) | half-life at 1 μM [1] | microsomal CLint at 1 μM [1] | Ki (5-HT2A receptor [2]) | binding affinity at the 5-HT2A receptor (in words) (5-HT2A receptor [2]; compared to closely related compounds) | pEC50 (5-HT1A receptor) | 5-HT1A % Act @ Max Dose (5-HT1A receptor; Ca2+ flux, CHO cells, max dose) | pEC50 (5-HT2A receptor [3]) | selectivity among 5-HT receptors (in words) (5-HT2A receptor [3]; 5-HT2A over 5-HT2B and 5-HT1A, Ca2+ flux) | agonist activity at the 5-HT2A receptor (in words) (5-HT2A receptor [3]; Ca2+ flux) | 5-HT2A % Act @ Max Dose (5-HT2A receptor [3]; [4]) | pEC50 (5-HT2B receptor) | 5-HT2B % Act @ Max Dose (5-HT2B receptor; [4]) | Average HTR (SEM) (C57BL/6 mice; 31.6 mg/kg s.c.)
1 | COc1cc(CC(C)N)c(OC)cc1I (stereo not drawn) [DOI, 4-iodo-2,5-dimethoxyamphetamine] | 5.5 (0.85) | 13.0 (2.07) | 29.3 (2.29) | 35.6 (3.37) | 22.7 (1.52) | 0.43 mg/kg | 35.6 head twitches/20 min | – | – | – | – | – | – | – | – | – | – | – | – | –
2 | COc1cc(CCN)c(OC)cc1Br [Compound 2C-B] | – | – | – | – | – | – | – | 1.25 h | 18.4 µL/min/mg | – | – | – | – | – | – | – | – | – | – | –
3 | CCc1cc(OC)c(CCN)cc1OC [Compound 2C-E] | – | – | – | – | – | – | – | 1.31 h | 17.6 µL/min/mg | 16.7 nM | – | – | – | – | – | – | – | – | – | –
4 | C=CCc1cc(OC)c(CCN)cc1OC [Compound 1, 2-(4-allyl-2,5-dimethoxyphenyl)ethan-1-amine] | 8.8 (0.79) | 13.3 (0.49) | 23.0 (1.21) | 28.8 (1.58) | 24.3 (2.04) | 0.28 mg/kg | 28.8 head twitches/20 min | 0.705 h | 32.8 µL/min/mg | 90.4 nM | reduced binding affinity | < 4.00 | 13.25% | 8.67 | selective for the 5-HT2A receptor over the 5-HT2B and 5-HT1A receptors | potent and highly efficacious agonist | 110.99% | 7.11 | 74.87% | –
5 | COc1cc(C(F)(F)F)c(OC)cc1CCN [Compound 2C-TFM, 2,5-dimethoxy-4-(trifluoromethyl)phenethylamine] | – | 6.5 (0.89) | 19.2 (2.47) | 19.2 (2.37) | 17.2 (1.62) | 0.43 mg/kg | 19.2 head twitches/20 min | – | – | 15.8 nM | – | – | – | – | – | – | – | – | – | 9.3 (1.12)
